Test results reported in US20070129415A1, “Method of Treating Isolated Systolic Hypertension” (priority 1997, published 2007).

Test system: prejunctional AII receptors and sympathetic outflow
Assay: Spinal cord-stimulated pithed rats: pressor response to stimulation of sympathetic vasomotor outflow
Type: in vivo, Sprague-Dawley rats
Details: pithed rat; for inhibition of the pressor responses mediated by sympathetic nervous system activation (spinal cord stimulation): 0.3 mg/kg, i.v. 10 min before second frequency-response curve, 50 V, 1 msec, 0.3-5.0 Hz
Description: Normotensive male Sprague-Dawley rats (300-350 gm) were anesthetized with Brevital (10 mg/kg, i.v.), a tracheostomy was performed and the rats were then pithed by inserting a steel rod (1.5 mm in diameter) through the orbit and foramen magnum into the spinal cord. Immediately after pithing, rats were ventilated artificially with room air using a rodent respirator at a frequency of 60 cycles/min with a volume of 2 ml/100 gm body weight. The pithing rod was insulated except for a 6-cm section distal from the tip. Body temperature was maintained at 37-38° C. by a thermostatic heating pad. Animals were treated with tubocurararine (1 mg/kg, i.v) and atropine (1 mg/kg, i.v.), to prevent muscle movement during spinal cord stimulation and parasympathetic effects, respectively. Systemic arterial blood pressure was measured from the right carotid artery by a Statham P23 pressure transducer and recorded on a Grass polygraph. The left jugular vein was cannulated for i.v. administration of drugs.
Stimulation of sympathetic vasomotor outflow was accomplished by a consecutive train of stimulation (50 V, 1 msec, 0.3-5.0 Hz) which was delivered for 15 sec at each frequency. […] For all the compounds evaluated, this dose provided effective blockade of the pressor response to exogenous AII (100 ng/kg, i.v.). Each rat served as its own control.
AII data are shown as the means±S.E.M. of the number (n) of observations. Statistical significance of the differences between drug-treated animals and vehicle-control animals was tested by a one-way analysis of variance with a P valued of 0.05 accepted as significant.

Row | Molecule | inhibition of the pressor responses mediated by sympathetic nervous system activation (spinal cord stimulation) | further results
1 | CCCCc1ncc(/C=C(\Cc2cccs2)C(=O)O)n1Cc1ccc(C(=O)O)cc1 [Eprosartan, (E)-α-[2-n-butyl-1-[(4-carboxyphenyl)methyl]-1H-imidazol-5-yl]methylene-2-thiophenepropionic acid monomethanesulfonate] | significant inhibition | 
2 | CCCCC1=NC2(CCCC2)C(=O)N1Cc1ccc(-c2ccccc2-c2nnn[nH]2)cc1 [irbesartan] | neither losartan, valsartan, or irbesartan produced significant inhibition | 
3 | CCCCc1nc(Cl)c(CO)n1Cc1ccc(-c2ccccc2-c2nn[nH]n2)cc1 [losartan] | neither losartan, valsartan, or irbesartan produced significant inhibition | 
4 | CCCCC(=O)N(Cc1ccc(-c2ccccc2-c2nnn[nH]2)cc1)[C@H](C(=O)O)C(C)C [valsartan] | neither losartan, valsartan, or irbesartan produced significant inhibition | 
5 | Sar^1-Ile^8[AII] |  | inhibition of the increase in pressor response to spinal cord stimulation (continuous infusion 10 ug/kg/min): significantly inhibited
6 | angiotensin II (DRVYIHPF; Angiotensin-2; UniProt P01019 25-32, looked up) [AII, angiotensin II (AII), infused at a sub-pressor dose] |  | shift of the frequency-response curve (pressor response to spinal cord stimulation) (continuous infusion of a sub-pressor dose, 40 ng/kg/min): significant leftward shifts
